Source: the NIST ThermoML archive (doi:10.1016/j.jct.2005.12.007)
± gives the expanded uncertainty stated by the source.

Conditions: 298.15 K, 101.33 kPa, Liquid; for viscosity: Capillary tube (Ostwald / Ubbelohde) method; for mass density: Pycnometric method; for speed of sound: Sing-around technique in a fixed-path interferometer

SMILES: CCCCN [1-butanamine]
- viscosity: 0.486 ± 0.007 mPa·s
- mass density: 733.3 ± 1 kg/m3
- speed of sound: 1249.7 ± 2.2 m/s

SMILES: CCCCNCCCC [dibutylamine]
- viscosity: 0.821 ± 0.008 mPa·s
- mass density: 757.53 ± 0.74 kg/m3
- speed of sound: 1243.4 ± 1.4 m/s

SMILES: CCCCN(CCCC)CCCC [tributylamine]
- viscosity: 1.258 ± 0.012 mPa·s
- mass density: 773.56 ± 0.76 kg/m3
- speed of sound: 1245.3 ± 1.4 m/s
